Source: US12252484B2, “Pyrazolopyridine compounds for the treatment of autoimmune disease” (Hoffmann-La Roche Inc., priority 2018, dated 2025)

Target: T1, human TLR7 (Homo sapiens, UniProt Q9NYK1)
T1 sequence (Q9NYK1 27-1049): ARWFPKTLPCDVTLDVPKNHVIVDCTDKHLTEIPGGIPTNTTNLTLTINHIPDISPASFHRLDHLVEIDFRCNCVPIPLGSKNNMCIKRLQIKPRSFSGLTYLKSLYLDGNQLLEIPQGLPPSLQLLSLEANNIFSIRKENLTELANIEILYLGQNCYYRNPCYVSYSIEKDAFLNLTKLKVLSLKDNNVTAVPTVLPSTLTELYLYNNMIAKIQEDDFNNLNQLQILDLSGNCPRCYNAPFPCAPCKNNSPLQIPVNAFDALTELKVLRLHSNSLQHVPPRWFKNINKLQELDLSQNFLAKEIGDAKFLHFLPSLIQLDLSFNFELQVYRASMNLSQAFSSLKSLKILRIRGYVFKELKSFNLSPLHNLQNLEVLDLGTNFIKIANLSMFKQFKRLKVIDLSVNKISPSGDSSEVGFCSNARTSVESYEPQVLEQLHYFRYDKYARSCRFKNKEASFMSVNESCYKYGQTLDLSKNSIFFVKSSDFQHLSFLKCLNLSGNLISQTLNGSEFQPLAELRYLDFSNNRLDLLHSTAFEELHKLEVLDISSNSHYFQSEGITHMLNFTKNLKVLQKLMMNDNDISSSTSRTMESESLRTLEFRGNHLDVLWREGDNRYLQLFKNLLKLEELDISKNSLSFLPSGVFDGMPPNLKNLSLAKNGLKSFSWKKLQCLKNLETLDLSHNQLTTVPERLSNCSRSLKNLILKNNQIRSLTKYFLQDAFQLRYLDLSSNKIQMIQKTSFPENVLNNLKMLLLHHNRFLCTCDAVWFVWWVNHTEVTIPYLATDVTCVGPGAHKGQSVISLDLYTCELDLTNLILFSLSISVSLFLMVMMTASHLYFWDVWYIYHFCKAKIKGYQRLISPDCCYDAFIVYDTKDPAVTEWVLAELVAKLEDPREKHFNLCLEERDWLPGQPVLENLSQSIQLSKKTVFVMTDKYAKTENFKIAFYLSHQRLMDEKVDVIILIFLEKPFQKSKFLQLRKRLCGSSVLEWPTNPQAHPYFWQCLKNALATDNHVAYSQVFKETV
Test: HEK293-Blue-hTLR-7 cells assay (SEAP reporter, R848 stimulation)
Assay type: cell-based
Conditions: not given
Method: The following tests were carried out in order to determine the activity of the compounds of formula (I) in HEK293-Blue-hTLR-7/8/9 cells assay.
HEK293-Blue-hTLR-7 Cells Assay:
A stable HEK293-Blue-hTLR-7 cell line was purchased from InvivoGen (Cat. #: hkb-htlr7, San Diego, California, USA). These cells were originally designed for studying the stimulation of human TLR7 by monitoring the activation of NF-κB. A SEAP (secreted embryonic alkaline phosphatase) reporter gene was placed under the control of the IFN-β minimal promoter fused to five NF-κB and AP-1-binding sites. The SEAP was induced by activating NF-κB and AP-1 via stimulating HEK-Blue hTLR7 cells with TLR7 ligands. Therefore the reporter expression was declined by TLR7 antagonist under the stimulation of a ligand, such as R848 (Resiquimod), for incubation of 20 hrs. The cell culture supernatant SEAP reporter activity was determined using QUANTI-Blue™ kit (Cat. #: rep-qb1, Invivogen, San Diego, Ca, USA) at a wavelength of 640 nm, a detection medium that turns purple or blue in the presence of alkaline phosphatase.
HEK293-Blue-hTLR7 cells were incubated at a density of 250,000˜450,000 cells/mL in a volume of 170 μL in a 96-well plate in Dulbecco's Modified Eagle's medium (DMEM) containing 4.5 g/L glucose, 50 U/mL penicillin, […], […], 2 mM L-glutamine, 10% (v/v) heat-inactivated fetal bovine serum with addition of 20 μL test compound in a serial dilution in the presence of final DMSO at 1% and 10 μL of 20 uM R848 in above DMEM, perform incubation under 37° C. in a CO2 incubator for 20 hrs. Then 20 μL of the supernatant from each well was incubated with 180 μL Quanti-blue substrate solution at 37° C. for 2 hrs and the absorbance was read at 620˜655 nm using a spectrophotometer. The signalling pathway that TLR7 activation leads to downstream NF-κB activation has been widely accepted, and therefore similar reporter assay was modified for evaluating TLR7 antagonist.

SMILES | IC50
C[C@@H]1CN(c2ccc(C#N)n3nccc23)C[C@H](C(=O)NC2CC3CCCC(C2)N3C)O1 (stereo partly drawn) [Example 35, (2R,6R)-4-(7-cyanopyrazolo[1,5-a]pyridin-4-yl)-6-methyl-N-(9-methyl-9-azabicyclo[3.3.1]nonan-3-yl)morpholine-2-carboxamide] | 4 nM

Same assay, conditions: HEK293-Blue-hTLR-7 cells, R848 ligand, 20 hrs incubation; read-out: TLR7 IC50

SMILES | IC50
C[C@@H]1CN(c2ccc(C#N)n3nccc23)C[C@H](C(=O)NC2C3CNCC2COC3)O1 (stereo partly drawn) [Example 27, (2R,6R)-4-(7-cyanopyrazolo[1,5-a]pyridin-4-yl)-6-methyl-N-(3-oxa-7-azabicyclo[3.3.1]nonan-9-yl)morpholine-2-carboxamide] | 63 nM
C[C@@H]1CN(c2ccc(C#N)n3nccc23)C[C@H](C(=O)N2CCC3(CCNCC3)CC2)O1 [Example 28, 4-[(2R,6R)-2-(3,9-diazaspiro[5.5]undecane-3-carbonyl)-6-methyl-morpholin-4-yl]pyrazolo[1,5a]pyridine-7-carbonitrile] | 320 nM
C[C@@H]1CN(c2ccc(C#N)n3nccc23)C[C@H](C(=O)NC2C3CNC[C@@H]32)O1 (stereo partly drawn) [Example 31, Trans-(2R,6R)-N-(3-azabicyclo[3.1.0]hexan-6-yl)-4-(7-cyanopyrazolo[1,5-a]pyridin-4-yl)-6-methyl-morpholine-2-carboxamide] | 50 nM
C[C@@H]1CN(c2ccc(C#N)n3nccc23)C[C@H](C(=O)NC2CN(C)CC23CC3)O1 (stereo partly drawn) [Example 32, (2R,6R)-4-(7-cyanopyrazolo[1,5-a]pyridin-4-yl)-6-methyl-N-(5-methyl-5-azaspiro[2.4]heptan-7-yl)morpholine-2-carboxamide] | 31 nM
C[C@@H]1CN(c2ccc(C#N)n3nccc23)C[C@H](C(=O)NC2CC3CCC(C2)N3C)O1 (stereo partly drawn) [Example 33, (2R,6R)-4-(7-cyanopyrazolo[1,5-a]pyridin-4-yl)-6-methyl-N-(8-methyl-8-azabicyclo[3.2.1]octan-3-yl)morpholine-2-carboxamide] | 4 nM
C[C@@H]1CN(c2ccc(C#N)n3nccc23)C[C@H](C(=O)NC2CC3CCC2CN3C)O1 (stereo partly drawn) [Example 34, (2R,6R)-4-(7-cyanopyrazolo[1,5-a]pyridin-4-yl)-6-methyl-N-(2-methyl-2-azabicyclo[2.2.2]octan-5-yl)morpholine-2-carboxamide] | 10 nM
C[C@@H]1CN(c2ccc(C#N)n3nccc23)C[C@H](C(=O)NC2CC3CC2CN3)O1 (stereo partly drawn) [Example 36, (2R,6R)-N-(2-azabicyclo[2.2.1]heptan-5-yl)-4-(7-cyanopyrazolo[1,5-a]pyridin-4-yl)-6-methyl-morpholine-2-carboxamide] | 130 nM
C[C@@H]1CN(c2ccc(C#N)n3nccc23)C[C@H](C(=O)NC2C3CCCC2CNC3)O1 (stereo partly drawn) [Example 37, (2R,6R)-N-(3-azabicyclo[3.3.1]nonan-9-yl)-4-(7-cyanopyrazolo[1,5-a]pyridin-4-yl)-6-methyl-morpholine-2-carboxamide] | 9 nM
C[C@@H]1CN(c2ccc(Cl)n3nccc23)C[C@H](C(=O)NC2CCN(C)CC2)O1 [Example 38, (2R,6R)-4-(7-chloropyrazolo[1,5-a]pyridin-4-yl)-6-methyl-N-(1-methyl-4-piperidyl)morpholine-2-carboxamide] | 28 nM
C[C@@H]1CN(c2ccc(C#N)n3nccc23)C[C@H](C(=O)NCC(C)(C)CN)O1 [Example 39, (2R,6R)-N-(3-amino-2,2-dimethyl-propyl)-4-(7-cyanopyrazolo[1,5-a]pyridin-4-yl)-6-methyl-morpholine-2-carboxamide] | 30 nM
C[C@@H]1CN(c2ccc(C#N)n3nccc23)C[C@H](C(=O)NCC2CCNC2)O1 (stereo partly drawn) [Example 40, (2R,6R)-4-(7-cyanopyrazolo[1,5-a]pyridin-4-yl)-6-methyl-N-(pyrrolidin-3-ylmethyl)morpholine-2-carboxamide] | 210 nM
C[C@@H]1CN(c2ccc(C#N)n3nccc23)C[C@H](C(=O)NC(C)(C)CN)O1 [Example 41, (2R,6R)-N-(2-amino-1,1-dimethyl-ethyl)-4-(7-cyanopyrazolo[1,5-a]pyridin-4-yl)-6-methyl-morpholine-2-carboxamide] | 46 nM
C[C@@H]1CN(c2ccc(C#N)n3nccc23)C[C@H](C(=O)Nc2ccc(C(=O)N3CCNCC3)cc2)O1 [Example 42, (2R,6R)-4-(7-cyanopyrazolo[1,5-a]pyridin-4-yl)-6-methyl-N-[4-(piperazine-1-carbonyl)phenyl]morpholine-2-carboxamide] | 12 nM
C[C@H]1C[C@@H](N)CN(c2ccc(C#N)n3nccc23)C1 [Example 43, 4-[(3R,5S)-3-amino-5-methyl-1-piperidyl]pyrazolo[1,5-a]pyridine-7-carbonitrile] | 34 nM
C[C@H]1C[C@@H](NC(=O)[C@H](C)N)CN(c2ccc(C#N)n3nccc23)C1 [Example 44, (2S)-2-amino-N-[(3R,5S)-1-(7-cyanopyrazolo[1,5-a]pyridin-4-yl)-5-methyl-3-piperidyl]propanamide] | 64 nM
C[C@H]1C[C@@H](NCC#N)CN(c2ccc(C#N)n3nccc23)C1 [Example 46, 4-[(3R,5S)-3-(cyanomethylamino)-5-methyl-1-piperidyl]pyrazolo[1,5-a]pyridine-7-carbonitrile] | 170 nM
C[C@@H]1CN(c2ccc(C#N)n3ncc(F)c23)C[C@H](C(=O)NC2CCN(C)CC2)O1 [Example 47, (2R,6R)-4-(7-cyano-3-fluoro-pyrazolo[1,5-a]pyridin-4-yl)-6-methyl-N-(1-methyl-4-piperidyl)morpholine-2-carboxamide] | 8 nM
